In one data set the test system is dogs. The note with it: intravenal administration to dogs; cited from earlier work.
In the case of `COc1ccc(C2(CCN(C)C)Cc3ccccc3C(=O)O2)cc1` (centres unmarked) [3-(2-dimethylamino-ethyl)-3,4-dihydro-3-(p-methoxy-phenyl)-isocoumarin], the anti-hypertensive activity entry is reported as “anti-hypertensive activity”.

With `CN(C)CCC1(c2ccccc2)Cc2ccccc2CO1` (centres unmarked) [3-(2-dimethylamino-ethyl)-3-(phenyl)-isochroman], the anti-hypertensive activity entry is “anti-hypertensive activity”.

Regarding `CN(C)CCC1(c2ccccc2)Cc2ccccc2C(=O)O1` (centres unmarked) [3-(2-dimethylamino-ethyl)-3,4-dihydro-3-phenyl-isocoumarin], the anti-hypertensive activity result was “anti-hypertensive activity”.

A further data set has as its system rats. The settings on record: oral administration to rats; cited from earlier work.
As for `COc1ccc(C2(CCN(C)C)Cc3ccccc3C(=O)O2)cc1` (centres unmarked) [3-(2-dimethylamino-ethyl)-3,4-dihydro-3-(p-methoxy-phenyl)-isocoumarin], the diuretic action result was “diuretics”.

As to `CC(CN(C)C)C1(c2ccccc2)Cc2ccccc2C(=O)O1` (centres unmarked) [3-(2-dimethylamino-(1-methyl-ethyl))-3,4-dihydro-3-phenyl-isocoumarin], the diuretic action result is “diuretics”.

Consider `CN(C)CCC1(c2ccccc2)Cc2ccccc2C(=O)O1` (centres unmarked) [3-(2-dimethylamino-ethyl)-3,4-dihydro-3-phenyl-isocoumarin], for which the diuretic action result was “diuretics”.

The next data set relates to rats. The settings on record: oral administration to rats; cited from earlier work. The source holds these as a separate data set.
Regarding `CC(CN(C)C)C1(c2ccccc2)Cc2ccccc2C(=O)O1` (centres unmarked) [3-(2-dimethylamino-(1-methyl-ethyl))-3,4-dihydro-3-phenyl-isocoumarin], the antihypertensive action entry is “ineffective”.

Tested on in a further data set: not given
Settings: not given
With `COc1cccc2c1CC(CCN(C)C)(c1ccccc1)OC2=O.Cl` (centres unmarked), the melting point was > 250 °C (dec.).

For `CCN(CC)CCC1(c2ccc(Cl)cc2)Cc2ccccc2C(=O)O1.Cl` (centres unmarked), the melting point is > 250 °C (dec.).

`Cl.O=C1OC(CCN2CCCCC2)(c2ccc(Cl)cc2)Cc2ccccc21` (centres unmarked): the melting point was > 250 °C (dec.).

As for `Cc1cccc2c1CC(CCN(C)C)(c1ccccc1)OC2=O.Cl` (centres unmarked), the melting point is > 250 °C (dec.).

Take `CN(C)CCCC1(c2ccc(Cl)cc2)Cc2ccccc2C(=O)O1.Cl` (centres unmarked): the melting point is > 250 °C (dec.).

In the case of `CN1CCN(CCC2(c3ccc(Cl)cc3)Cc3ccccc3C(=O)O2)CC1.Cl` (centres unmarked), the melting point is > 250 °C (dec.).

Take `COc1ccc(C2(CCN(C)C)Cc3ccccc3C(=O)O2)cc1.Cl` (centres unmarked): the melting point was > 250 °C (dec.).

As to `Cl.O=C1OC(CCN2CCCC2)(c2ccc(Cl)cc2)Cc2ccccc21` (centres unmarked), the melting point was > 250 °C (dec.).

On to `CN(C)CCC1(c2cccc(Cl)c2)Cc2ccccc2C(=O)O1.Cl` (centres unmarked), for which the melting point was > 250 °C (dec.).

In the case of `CN(C)CCC1(c2cccc(F)c2)Cc2ccccc2C(=O)O1.Cl` (centres unmarked), the melting point is > 250 °C (dec.).

In the case of `Cc1cccc2c1C(=O)OC(CCN(C)C)(c1ccc(Cl)cc1)C2.Cl` (centres unmarked), the melting point is > 250 °C (dec.).

On to `CN(C)CCC1(c2ccccc2Cl)Cc2ccccc2C(=O)O1.Cl` (centres unmarked), for which the melting point is > 250 °C (dec.).

Turning to `CN(C)CCC1(c2ccccc2)Cc2ccccc2C(=O)O1.Cl` (centres unmarked), the melting point was > 250 °C (dec.).

As for `CN(C)CCC1(c2ccc(Oc3ccccc3)cc2)Cc2ccccc2C(=O)O1.Cl` (centres unmarked), the melting point is 245.2 to 246.3 °C (dec.).

Turning to `CN(C)CCC1(c2cccs2)Cc2ccccc2C(=O)O1.Cl` (centres unmarked), the melting point is > 250 °C (dec.).

Regarding `COc1cccc(C2(CCN(C)C)Cc3ccccc3C(=O)O2)c1.Cl` (centres unmarked), the melting point is > 250 °C (dec.).

As to `CC1c2ccccc2C(=O)OC1(CCN(C)C)c1ccc(Cl)cc1.Cl` (centres unmarked), the melting point was > 250 °C (dec.).

Regarding `COc1ccccc1C1(CCN(C)C)Cc2ccccc2C(=O)O1.Cl` (centres unmarked), the melting point was > 250 °C (dec.).

Consider `Cc1ccc2c(c1)C(=O)OC(CCN(C)C)(c1ccccc1)C2.Cl` (centres unmarked), for which the melting point was > 250 °C (dec.).

Usually melting point stands for the temperature, or range, at which the solid turns liquid.

The values above are taken from US20060058374A1, “Urotensin II receptor agents” (priority 2002, published 2006).
